IC50 and Ki data for eleven molecules are collected here from ChEMBL document CHEMBL1909046, “DrugMatrix in vitro pharmacology data”.

Data set [1] has as its target Mitogen-activated protein kinase 1 (Homo sapiens, UniProt P28482). Briefly: DRUGMATRIX: Protein Serine/Threonine Kinase, ERK2 enzyme inhibition (substrate: Myelin Basic Protein). On the set-up: species or system Escherichia coli. The note with it: Not Active = under 50% inhibition at 10 µM.
For data set [2], the target named is Matrix metalloproteinase-9 (Homo sapiens, UniProt P14780). The data set is classed as cell-based.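 Also: inhibition of isolated MMP-9 enzyme activity toward a synthetic peptide substrate, from the DrugMatrix protease screening panel; in other assays of this panel Not Active means under 50% inhibition at 10 µM.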
Data set [3] in a line: DRUGMATRIX: Interleukin IL-1 radioligand binding (ligand: [125I] interleukin 1beta). It counts as cell membranes, Membrane. The note with it: nih3t3; Not Active = under 50% inhibition at 10 µM.
The target in data set [4] is C-C chemokine receptor type 5 (Homo sapiens, UniProt P51681). The data set is classed as cell membranes, HEK293, Membrane. The note with it: hek293. Also: in other assays of this panel Not Active means under 50% inhibition at 10 µM.
Data set [5] deals with T1, Alpha-2A adrenergic receptor (Homo sapiens, UniProt P08913).
T1 sequence (P08913 whole entry): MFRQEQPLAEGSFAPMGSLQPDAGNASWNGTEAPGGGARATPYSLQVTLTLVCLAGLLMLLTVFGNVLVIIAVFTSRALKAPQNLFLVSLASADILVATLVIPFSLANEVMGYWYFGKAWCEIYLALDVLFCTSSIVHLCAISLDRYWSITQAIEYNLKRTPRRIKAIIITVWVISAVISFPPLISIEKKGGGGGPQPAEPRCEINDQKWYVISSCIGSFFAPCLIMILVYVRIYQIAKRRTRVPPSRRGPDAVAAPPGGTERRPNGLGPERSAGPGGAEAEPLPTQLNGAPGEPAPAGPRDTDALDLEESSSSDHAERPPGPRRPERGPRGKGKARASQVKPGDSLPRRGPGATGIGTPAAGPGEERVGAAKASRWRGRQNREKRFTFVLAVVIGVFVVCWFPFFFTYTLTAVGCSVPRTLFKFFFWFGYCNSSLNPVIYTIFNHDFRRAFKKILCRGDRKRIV
The data set is classed as cell membranes, Sf9, Membrane.

The target of another data set is T2, Caspase-1 (Homo sapiens, UniProt P29466).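 Also: Caspase-1 enzyme inhibition assay with a peptide substrate; in other assays of this panel Not Active means under 50% inhibition at 10 µM.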
T2 sequence (P29466 whole entry): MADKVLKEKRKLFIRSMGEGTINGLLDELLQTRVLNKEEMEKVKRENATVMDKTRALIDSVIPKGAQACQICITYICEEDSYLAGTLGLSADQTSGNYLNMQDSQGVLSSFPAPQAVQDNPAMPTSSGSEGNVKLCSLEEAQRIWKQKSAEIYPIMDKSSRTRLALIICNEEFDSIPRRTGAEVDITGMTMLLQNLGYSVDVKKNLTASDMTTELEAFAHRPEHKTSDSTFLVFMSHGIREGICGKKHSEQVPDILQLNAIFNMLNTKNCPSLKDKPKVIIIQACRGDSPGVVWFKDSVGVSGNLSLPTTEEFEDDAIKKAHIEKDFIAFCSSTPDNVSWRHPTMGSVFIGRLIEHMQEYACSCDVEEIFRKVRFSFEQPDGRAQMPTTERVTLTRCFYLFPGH
Also noted: species or system Escherichia coli.

The next data set deals with T3, Cytochrome P450 2A6 (Homo sapiens, UniProt P11509).
T3 sequence (P11509 whole entry): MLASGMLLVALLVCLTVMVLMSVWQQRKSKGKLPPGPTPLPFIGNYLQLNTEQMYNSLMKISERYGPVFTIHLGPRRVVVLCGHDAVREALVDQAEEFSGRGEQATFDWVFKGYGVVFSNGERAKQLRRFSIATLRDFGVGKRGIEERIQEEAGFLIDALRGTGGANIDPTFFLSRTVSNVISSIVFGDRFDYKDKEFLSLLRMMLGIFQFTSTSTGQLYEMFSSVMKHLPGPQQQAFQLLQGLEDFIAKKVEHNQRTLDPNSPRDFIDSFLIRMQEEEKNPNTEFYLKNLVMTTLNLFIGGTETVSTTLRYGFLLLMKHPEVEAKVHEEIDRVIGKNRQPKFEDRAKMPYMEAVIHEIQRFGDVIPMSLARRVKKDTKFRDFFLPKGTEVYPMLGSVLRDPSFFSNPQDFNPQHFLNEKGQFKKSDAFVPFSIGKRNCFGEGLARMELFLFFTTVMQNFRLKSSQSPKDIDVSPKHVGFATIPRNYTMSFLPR
Conditions: bti-tn-5b1-4.

Data set [6] can be described thus: DRUGMATRIX: beta-Lactamase enzyme inhibition (substrate: Nitrocefin). Also noted: species or system Bacillus cereus. The note with it: Not Active = under 50% inhibition at 10 µM.

Sequence of C-C chemokine receptor type 5 (P51681 whole entry): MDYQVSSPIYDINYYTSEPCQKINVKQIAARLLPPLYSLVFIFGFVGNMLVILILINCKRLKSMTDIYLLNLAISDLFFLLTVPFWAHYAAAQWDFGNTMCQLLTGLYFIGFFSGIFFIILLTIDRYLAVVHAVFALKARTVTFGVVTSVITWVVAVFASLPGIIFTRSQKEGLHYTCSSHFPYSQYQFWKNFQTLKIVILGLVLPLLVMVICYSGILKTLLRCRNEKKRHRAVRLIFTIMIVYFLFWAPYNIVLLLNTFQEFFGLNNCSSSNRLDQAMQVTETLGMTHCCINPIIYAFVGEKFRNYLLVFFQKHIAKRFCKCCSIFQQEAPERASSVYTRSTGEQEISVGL
Sequence of Matrix metalloproteinase-9 (P14780 whole entry): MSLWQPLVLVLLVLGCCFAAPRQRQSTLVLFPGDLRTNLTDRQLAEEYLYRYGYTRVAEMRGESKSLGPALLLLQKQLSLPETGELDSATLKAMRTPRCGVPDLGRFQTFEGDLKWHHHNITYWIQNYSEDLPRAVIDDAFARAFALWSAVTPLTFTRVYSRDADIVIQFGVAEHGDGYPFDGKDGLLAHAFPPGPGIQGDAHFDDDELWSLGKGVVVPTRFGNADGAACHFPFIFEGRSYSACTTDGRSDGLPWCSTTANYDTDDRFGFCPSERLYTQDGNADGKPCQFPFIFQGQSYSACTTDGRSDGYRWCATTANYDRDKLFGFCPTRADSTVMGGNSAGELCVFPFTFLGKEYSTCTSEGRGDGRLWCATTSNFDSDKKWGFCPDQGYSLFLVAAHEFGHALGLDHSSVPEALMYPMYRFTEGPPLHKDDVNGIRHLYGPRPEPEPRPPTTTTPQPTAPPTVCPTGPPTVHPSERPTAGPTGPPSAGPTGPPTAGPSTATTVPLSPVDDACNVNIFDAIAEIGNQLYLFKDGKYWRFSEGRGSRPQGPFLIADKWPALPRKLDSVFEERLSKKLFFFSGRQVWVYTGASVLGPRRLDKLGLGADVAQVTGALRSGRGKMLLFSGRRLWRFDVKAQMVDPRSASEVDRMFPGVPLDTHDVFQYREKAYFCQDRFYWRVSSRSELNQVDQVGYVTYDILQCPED
Sequence of Mitogen-activated protein kinase 1 (P28482 whole entry): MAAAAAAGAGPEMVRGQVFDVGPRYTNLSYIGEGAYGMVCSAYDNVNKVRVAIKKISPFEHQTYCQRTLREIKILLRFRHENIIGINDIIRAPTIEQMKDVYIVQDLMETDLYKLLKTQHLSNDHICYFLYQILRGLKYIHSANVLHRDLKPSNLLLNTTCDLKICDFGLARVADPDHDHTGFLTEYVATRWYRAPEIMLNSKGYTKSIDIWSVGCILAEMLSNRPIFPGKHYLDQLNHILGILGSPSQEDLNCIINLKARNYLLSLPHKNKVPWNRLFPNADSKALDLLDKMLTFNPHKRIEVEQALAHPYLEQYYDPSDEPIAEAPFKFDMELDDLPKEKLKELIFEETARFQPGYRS

Broadly, the IC50 is the concentration that gives 50% inhibition. A word on the Ki: it is the dissociation constant of the complex between target and ligand, obtained from inhibition or displacement. Turning to `O=C1c2ccccc2C(=O)C1c1ccccc1` [PHENINDIONE], the IC50 entry (in data set [1]; in data set [2]; in data set [3]; in data set [4]; in data set [5] (sf9); at Caspase-1) was “Not Active” throughout. The IC50 entry (against Cytochrome P450 2A6; in data set [6]) was “Not Active” each time. Also, the Ki result (in data set [3]; on Cytochrome P450 2A6; in data set [6]) was “Not Active” in each case.

On to `NC(N)=Nc1nc(CSCCC(N)=NS(N)(=O)=O)cs1` [FAMOTIDINE], for which the IC50 entry (in data set [1]; in data set [2]; in data set [3]; in data set [4]; in data set [5] (sf9); at Caspase-1) was “Not Active” throughout. In addition, the IC50 entry (at Cytochrome P450 2A6; in data set [6]) was “Not Active” in each case. For the same molecule, the Ki entry (in data set [3]; on Cytochrome P450 2A6; in data set [6]) was “Not Active” in each case.

In the case of `Cc1ccnc2c1NC(=O)c1cccnc1N2C1CC1` [NEVIRAPINE], the IC50 entry (in data set [1]; in data set [2]; in data set [3]; in data set [4]; in data set [5] (sf9); against Caspase-1) was “Not Active” throughout. Further, the IC50 result (against Cytochrome P450 2A6; in data set [6]) was “Not Active” throughout. In addition, the Ki result (in data set [3]; at Cytochrome P450 2A6; in data set [6]) was “Not Active” each time.

For the molecule `CO[C@H]1O[C@@H]2O[C@@]3(C)CC[C@H]4[C@H](C)CC[C@@H]([C@H]1C)[C@@]24OO3`, the IC50 entry (in data set [1]; in data set [2]; in data set [3]; in data set [4]; in data set [5] (sf9); at Caspase-1) was “Not Active” throughout. Besides, the concentration for half-maximal inhibition (IC50) result (against Cytochrome P450 2A6; in data set [6]) was “Not Active” each time. The Ki result (in data set [3]; on Cytochrome P450 2A6; in data set [6]) was “Not Active” each time.

For `CN(CCOc1ccc(C[C@H](Nc2ccccc2C(=O)c2ccccc2)C(=O)O)cc1)c1ccccn1`, the IC50 result (in data set [1]; in data set [2]; in data set [3]; in data set [4]; in data set [5] (sf9); on Caspase-1) was “Not Active” in each case. The IC50 result (at Cytochrome P450 2A6; in data set [6]) was “Not Active” in each case. The Ki result (in data set [3]; at Cytochrome P450 2A6; in data set [6]) was “Not Active” in each case.

Turning to `c1ccc2sc(SSc3nc4ccccc4s3)nc2c1` [BENZOTHIAZYL DISULFIDE], the IC50 entry in data set [1] was “Not Active”; in data set [2], “Not Active”; in data set [3] it was “Not Active”; in data set [4], “Not Active”; in data set [5] (read-out: IC50), 899 nM; against Caspase-1, “Not Active”. Further, the IC50 result (against Cytochrome P450 2A6; in data set [6]) was “Not Active” throughout. Besides, the Ki entry in data set [3] is “Not Active”; in data set [5] (read-out: Ki), 337 nM; at Cytochrome P450 2A6 it was “Not Active”; in data set [6] it was “Not Active”.

Turning to `NS(=O)(=O)c1cc(C(=O)O)c(NCc2ccco2)cc1Cl` [FUROSEMIDE], the IC50 result (in data set [1]; in data set [2]; in data set [3]; in data set [4]; in data set [5] (sf9); against Caspase-1) was “Not Active” in each case. The IC50 entry (against Cytochrome P450 2A6; in data set [6]) was “Not Active” each time. Further, the Ki entry (in data set [3]; at Cytochrome P450 2A6; in data set [6]) was “Not Active” in each case.

`COc1ccc(C[C@H](N)C(=O)N[C@H]2[C@@H](O)[C@H](n3cnc4c(N(C)C)ncnc43)O[C@@H]2CO)cc1` [PUROMYCIN]: the half-inhibitory concentration (IC50) result (in data set [1]; in data set [2]; in data set [3]; in data set [4]; in data set [5] (sf9); on Caspase-1) was “Not Active” each time. The IC50 entry (against Cytochrome P450 2A6; in data set [6]) was “Not Active” each time. Besides, the Ki entry (in data set [3]; on Cytochrome P450 2A6; in data set [6]) was “Not Active” in each case.

As for `O=c1[nH]c2ccccc2c2ccccc12`, the concentration for half-maximal inhibition (IC50) result (in data set [1]; in data set [2]; in data set [3]; in data set [4]; in data set [5] (sf9); against Caspase-1) was “Not Active” in each case. Also, the IC50 entry (at Cytochrome P450 2A6; in data set [6]) was “Not Active” each time. Besides, the Ki entry (in data set [3]; on Cytochrome P450 2A6; in data set [6]) was “Not Active” each time.

COPPER(II) OXIDE: the IC50 entry (in data set [1]; in data set [2]; in data set [3]; in data set [4]; in data set [5] (sf9); on Caspase-1) was “Not Active” in each case. The IC50 result (at Cytochrome P450 2A6; in data set [6]) was “Not Active” each time. Besides, the Ki entry (in data set [1]; in data set [2]; in data set [3]; in data set [4]; in data set [5] (sf9); on Caspase-1) was “Not Active” throughout. For the same molecule, the Ki entry (on Cytochrome P450 2A6; in data set [6]) was “Not Active” in each case.

With `CC12CCC(CC1)C(C)(C)O2` [EUCALYPTOL], the IC50 entry (in data set [1]; in data set [2]; in data set [3]; in data set [4]; in data set [5] (sf9); against Caspase-1) was “Not Active” each time. In addition, the IC50 entry (on Cytochrome P450 2A6; in data set [6]) was “Not Active” each time. Moreover, the Ki entry (in data set [3]; on Cytochrome P450 2A6; in data set [6]) was “Not Active” in each case.
